Measurements published in publication PMC9738062, “Selectively Halogenated Flavonolignans—Preparation and Antibacterial Activity” (International Journal of Molecular Sciences, 2022).

Experiments:
[1] = tested on: Vibrio campbellii BAA 1118 (AI-1); assay: microbe, parasite or virus in culture; assay type: cell-based; settings: for EC50: Vibrio campbellii, BAA1118, 16 h, read-out: EC50 (concentration that halved the communication); for SI (selectivity index): ratio IC50 (viability) / EC50 (communication), BAA 1118
Text: (§1) Commercially available strains of Vibrio campbellii were used to evaluate the ability of flavonoids and their derivatives to inhibit bacterial quorum sensing. V. campbellii uses two types of autoinducing molecules for its communication—N-acyl-homoserine lactones (Autoinducer I, AI-1, strain BAA 1118) and furanosyl borate diester (Autoinducer II, AI-2, strain BAA 1119). AI-1-based communication is mainly used by Gram-negative bacteria, while AI-2-based communication is found in both Gram-negative and Gram-positive bacteria. The mutant strains of V. campbellii BA1118 and BA1119 respond only to AI-1 or AI-2, respectively, and the response to the respective AI concentration is measured as luminescence. The higher the AI concentration, the higher the luminescence signal. The ability to inhibit the communication was expressed as the selectivity index (SI), calculated as the ratio between the concentration that halved the viability (IC50) and the concentration that halved the communication (EC50) of the respective V. campbellii strains. […] The antimicrobial activity of quorum-sensing inhibitors is undesirable because it creates a selection pressure and can lead to the development of resistance.
(§2) The inhibition of bacterial extracellular communication was measured using Vibrio campbellii strains BAA-1118 and BAA-1119. The experiment was performed according to the methods of Szemerédi et al.. Briefly, 5 × 10^5 CFU/mL (colony-forming units per milliliter) were seeded in an Autoinducer Bioassay medium (NaCl 17.5 g/L, MgSO4 12.3 g/L, Casamino acids 2 g/L, 10 mL of 1 M potassium phosphate pH 7.0, 10 mL of 0.1 M L-arginine, and 10 mL of glycerol in 970 mL of deionized water) in a 96-well plate. Immediately, the tested compounds were added at the final concentration of 0.2–200 µM and luminescence was recorded for 16 h by a SpectraMax i3x microplate reader set at 30 °C, an integration time of 10,000 ms, and shaking for 60 s before measurement. […] The selectivity index was calculated as the […]. The EC50 and IC50 were calculated using GraphPad Prism software version 5.00 for Windows with a nonlinear regression curve fit.

[2] = tested on: Vibrio campbellii BAA 1119 (AI-2); assay: microbe, parasite or virus in culture; assay type: cell-based; settings: for EC50: Vibrio campbellii, BAA1119, 16 h, read-out: EC50 (concentration that halved the communication); for SI (selectivity index): ratio IC50 (viability) / EC50 (communication), BAA 1119
Text: as §1, §2

[3] = tested on: Vibrio campbellii BAA 1118 (AI-1); assay: Viability of the quorum-sensing reporter culture (resazurin assay), AI-1 strain; assay type: cell-based; settings: BAA1118, V. campbellii BAA 1118, resazurin assay, read-out: IC50 (concentration that halved the viability)
Text: as §1, §2

[4] = tested on: multidrug-resistant P. aeruginosa; assay: Sensitization of antibiotic-resistant bacteria (compound plus breakpoint antibiotic concentration); assay type: cell-based, Pseudomonas aeruginosa; settings: flavonoid 40 µM, 24 h; for Effect on viability in combination with colistin: colistin 2 mg/L; for Effect on viability in combination with imipenem: imipenem 4 mg/L; as to Effect on viability in combination with imipenem: key: -: no effect (100% viability) was observed up to the highest flavonolignan concentration tested (>40 µM); reversion of resistance: the compound reversed the resistant phenotype to a sensitive one
Experimental: Clinically relevant antibiotics were selected for sensitization testing according to the European Committee on Antimicrobial Susceptibility Testing (EUCAST). Neither colistin and imipenem at breakpoint concentrations (according to EUCAST, […] and […]) affected the growth of the multidrug-resistant clinical strain of P. aeruginosa. Similarly, neither chloramphenicol and gentamicin at breakpoint concentrations ([…], respectively) affected the multidrug-resistant clinical strain of S. aureus. Flavonoids and their derivatives (1–40 µM) were used in combination therapy, along with the breakpoint concentration of antibiotics. After co-incubation, the minimum inhibitory concentration of flavonoids inhibiting the visible growth of bacteria was determined (Table 2).
Clinical isolates of P. aeruginosa and S. aureus were obtained from the General University Hospital in Prague (Prague, Czech Republic). P. aeruginosa was resistant to ciprofloxacin, oxacillin, ticarcillin, colistin, gentamicin, and imipenem. S. aureus was resistant to ciprofloxacin, gentamicin, erythromycin, chloramphenicol, clindamycin, oxacillin, cefotaxime, and vancomycin. Bacteria were cultivated in Mueller–Hinton broth (MH broth, Merck). The susceptibility of the bacteria was evaluated by the minimum inhibitory concentrations (MIC). The MIC of derivatives in the presence of the antibiotic cut-off concentration was determined according to ISO 20776-1: 2020. The antibiotic cut-off concentration was chosen according to the European Committee on Antimicrobial Susceptibility Testing (EUCAST, Clinical breakpoints—bacteria (ver. 11.0), 1 January 2021). The 40 µM concentration of the derivatives was chosen as the highest concentration for the tests. Cell viability was determined by measuring absorbance (A590 nm) after 24 h incubation at 37 °C, 150 rpm.

[5] = Ferric reducing antioxidant power (FRAP); settings: Fe2+ equivalents
Experimental: (§3) To further elucidate how halogenation affects other properties of the flavonoids studied, their 2,2′-azino-bis-(3-ethylbenzothiazoline-6-sulfonic acid) cation (ABTS) and 1,1-diphenyl-2-picrylhydrazyl (DPPH) radical scavenging, the Folin–Ciocalteu reagent (FCR) reducing, the ferric-reducing antioxidant power (FRAP), and the anti-lipoperoxidation activities were evaluated by in vitro methods (Supplementary Information Tables S1 and S2).
(§4) The antiradical activity was evaluated by the ability to scavenge ABTS and DPPH radicals. Reducing capacity was assessed by the ability to reduce the Folin–Ciocalteu reagent (FCR) and ferric ions (FRAP). The ability to inhibit lipid peroxidation of pooled male rat microsomal liver membranes induced by tert-butyl hydroperoxide was also evaluated and the results were expressed as IC50 values.

[6] = DPPH radical scavenging; settings: 1,1-diphenyl-2-picrylhydrazyl radical scavenging
Experimental: as §3, §4

[7] = tested on: pooled male rat microsomal liver membranes; assay: Inhibition of lipid peroxidation induced by tert-butyl hydroperoxide; assay type: biochemical; settings: male rat microsomes, read-out: ILP IC50
Experimental: as §4

[8] = tested on: lipopolysaccharide-stimulated macrophages (RAW 264.7); assay: Inhibition of nitric oxide production (Griess reagent); assay type: cell-based, murine; settings: Mus musculus, RAW264.7; LPS 100 ng/mL, 24 h; highest tested concentration 100 µM; read-out: NO Production IC50
Experimental: The anti-inflammatory activity of the tested flavonolignans was determined as the ability to reduce nitric oxide production by murine macrophages (RAW 264.7) stimulated by bacterial lipopolysaccharides, as previously described. […] For the experiment, 1 × 10^6 cells/mL was seeded into the 96-well plate (100 µL/well). […] After 24 h, the medium was mixed with Griess reagent (0.04 g/mL), prepared freshly in deionized water at the ratio of 1:1. The absorbance was measured after 15 min at 540 nm by the SpectraMax i3x microplate reader. Cell viability was determined by resazurin assay.

| Structure (SMILES) | EC50 [1] | SI (selectivity index) [1] | EC50 [2] | SI (selectivity index) [2] | IC50 [3] | Effect on viability in combination with colistin [4] | Effect on viability in combination with imipenem [4] | FRAP [Fe2+eq] [5] | IC50 [6] | IC50 [7] | IC50 [8] |
| --- | --- | --- | --- | --- | --- | --- | --- | --- | --- | --- | --- |
| COc1cc([C@H]2Oc3cc([C@H]4Oc5cc(O)cc(O)c5C(=O)[C@@H]4O)ccc3O[C@@H]2CO)ccc1O [3a, silybin A, reference compound] | 97.1 ± 1 µM | 1.3 ± 0.1 | 17.1 ± 0.5 µM | 7.0 ± 0.4 | 131 ± 3.7 µM | - | - | 0.071 ± 0.003 Fe2+eq | 322 µM | 213 µM | 53.9 ± 4.9 µM |
| COc1cc([C@@H]2Oc3cc([C@H]4Oc5cc(O)cc(O)c5C(=O)[C@@H]4O)ccc3O[C@H]2CO)ccc1O [3b, silybin B, reference compound] | 121.5 ± 0.6 µM | 0.96 ± 0.01 | 22.3 ± 0.5 µM | 6.8 ± 0.2 | 116.6 ± 0.9 µM | - | - | 0.078 ± 0.004 Fe2+eq | 259 µM | 291 µM | 55.6 ± 5.5 µM |
| O=C1c2c(O)cc(O)cc2OC(c2ccc(O)c(O)c2)C1O (stereo not shown) [compound 1, taxifolin, reference compound] | 63.7 ± 2.7 µM | 1.1 ± 0.1 | 7.3 ± 0.3 µM | 11.0 ± 0.6 | 71 ± 3 µM | - | - | 1.45 ± 0.07 Fe2+eq | 2.91 µM | 16.3 ± 1.1 µM | 52.4 ± 1.2 µM |
| O=c1c(O)c(-c2ccc(O)c(O)c2)oc2cc(O)cc(O)c12 [compound 2, quercetin, reference compound] | 15.9 ± 0.5 µM | 1.5 ± 0.1 | 4.8 ± 0.2 µM | 2.2 ± 0.2 | 24.5 ± 0.8 µM | - | - | 2.84 ± 0.02 Fe2+eq | 2.06 µM | 39 ± 2.9 µM | 14.6 ± 2.1 µM |
| COc1cc(C2Oc3cc(-c4oc5cc(O)cc(O)c5c(=O)c4O)ccc3OC2CO)ccc1O (stereo not shown) [compound 4, 2,3-dehydrosilybin AB, reference compound] | 59.9 ± 2 µM | 2.7 ± 0.2 | 10.2 ± 0.4 µM | 2.5 ± 0.2 | 163 ± 3.8 µM | - | - | 0.72 ± 0.03 Fe2+eq | 14.4 µM | 34.6 ± 2.3 µM | 27.9 ± 0.5 µM |
| COc1cc([C@@H]2Oc3c(O)cc([C@H]4Oc5cc(O)cc(O)c5C(=O)[C@@H]4O)cc3[C@H]2CO)ccc1O [compound 5, silychristin A, reference compound] | > 200 µM |  | > 200 µM |  | > 200 µM | - | - | 0.25 ± 0.02 Fe2+eq | 47.2 µM | 129 µM | 72.5 ± 5.4 µM |
| COc1cc([C@@H]2Oc3c(O)cc(-c4oc5cc(O)cc(O)c5c(=O)c4O)cc3[C@H]2CO)ccc1O [compound 6, 2,3-dehydrosilychristin A, reference compound] | 22.3 ± 1 µM | 1.9 ± 0.2 | 11.1 ± 0.1 µM | 0.99 ± 0.05 | 43 ± 1.5 µM | - | - | 1.16 Fe2+eq | 10.8 ± 0.4 µM | 51.9 ± 2.2 µM | 42.1 ± 2.7 µM |
| O=C1c2c(cc(O)c(Br)c2O)O[C@H](c2ccc(O)c(O)c2)[C@H]1O [compound 7, 6-Bromotaxifolin] | 38.9 ± 1.6 µM | 1.5 ± 0.1 | 11.9 ± 0.5 µM | 1.7 ± 0.2 | 59 ± 0.1 µM | - | - | 1.33 ± 0.03 Fe2+eq | 7.77 µM | 201 µM | 78.4 ± 7.8 µM |
| O=C1c2c(O)c(Br)c(O)c(Br)c2O[C@H](c2ccc(O)c(O)c2)[C@H]1O [compound 8, 6,8-dibromotaxifolin] | 38.1 ± 2 µM | 1.5 ± 0.1 | 10.1 ± 0.4 µM | 10.8 ± 0.6 | 55.5 ± 1 µM | - | - | 2.20 ± 0.03 Fe2+eq | 4.37 µM | 22.5 ± 1 µM | 62.2 ± 4.2 µM |
